Assay results: patent publication US20220183287A1, “METHODS FOR KILLING PESTS” (The United States of America, as represented by the …, priority 2020, published 2022)
Several values for one entry are separate records, joined by “and”; a condition that tells them apart may be missing. Identical values can stand only once. Marks after values point to notes of the source that are not given here.

Tests used:
Caenorhabditis elegans = details: produced by Bacillus nematocida; cited from earlier work
Heterodera glycines eggs = assay: Microwell assay: eggs immersed in compounds, hatch and activity of hatched J2; assay type: in vivo; details: 0.1%; for % Active Day 2 / % Active Day 5 / % Active Day 7: J2 hatched from immersed eggs; for Hatch Day 2 / Hatch Day 5 / Hatch Day 7: hatched J2 per well, about 35 eggs per well; for pest or weed control at 0.1 %: Heterodera glycines, 168 h, Day 7, read-out: egg hatch suppression compared with the Tween control
Experimental: (§1) All chemicals were used without further purification.
(§2) These are reported as 0.1% herein.
(§3) The nematodes were then incubated at 26° C. […] Two trials were conducted for each assay.
(§4) The assumptions of the model were checked.

[1] = system: M. incognita second-stage juveniles; assay: Microwell assay: previously hatched J2 immersed in compounds, activity and viability; details: for % Active Day 1 / % Active Day 2: previously hatched J2 in aqueous solution; for viability at 0.1 %: read-out: % Viable Day 3 rinsed
Experimental: Nematode cultures: As described in Meyer et al. (Meyer, S. L. F., et al., Nematropica, 46: 85-96 (2016)), M. incognita race 1 (originally isolated in Maryland) was maintained in a greenhouse (24° to 29° C.; natural and supplemental lighting combined for a 16-h daylength) on susceptible cayenne pepper (Capsicum annuum) TA-136′ plants. All greenhouse experiments described herein were conducted under the same conditions. Two to three months after pepper plant inoculation, egg masses were picked from roots. Eggs were separated by 5 min immersion in 0.6% sodium hypochlorite, followed by a rinse in sterile distilled water (SDW). To collect second-stage juveniles (J2) for microwell assays, the surface-sterilized eggs were placed in a hatching chamber (Spectra/Mesh Nylon Filter, openings 25-μm-diam.; Spectrum Laboratories Inc., Rancho Dominguez, Calif.) set in an autoclaved dish that was placed on a rotary shaker for 3 days at 35 rpm. For some M. incognita and H. glycines assays, 25 or […] kanamycin monosulfate (Phytotechnology Laboratories, Shawnee Mission, Kans.) was added to the hatching chamber to prevent growth of bacteria. The collected J2 were then rinsed with water to remove the kanamycin monosulfate.
(§5) Compounds for the studies were purchased from three different companies: methyl benzoate, CAS Number 93-58-3, ≥99% purity; Tween 20, CAS Number: 9005-64-5; Tween 80, CAS Number: 9005-65-6; ethyl benzoate, CAS Number: 93-89-0, natural, ≥99% purity, FCC, FG; vinyl benzoate, CAS Number: 769-78-8, ≥99% purity; n-propyl benzoate, CAS Number: 2315-68-6, 99% purity; n-butyl benzoate, CAS Number: 136-60-7, 99% purity; benzyl benzoate, CAS Number: 120-51-4, natural, ≥99% purity, FCC, FG; methyl 2-methylbenzoate, CAS Number: 89-71-4, 99% purity; methyl 2-chlorobenzoate, CAS Number: 610-96-8, ≥98% purity; methyl 2-methoxybenzoate, CAS Number: 606-45-1, 99% purity and methyl 2-nitrobenzoate, CAS Number: 606-27-9, 98% purity were purchased from Sigma-Aldrich (St. Louis, Mo.). Compounds, iso-butyl benzoate, CAS Number 120-50-3, >98% purity; n-pentyl benzoate, CAS Number: 2049-96-9, ≥98% purity; and n-hexyl benzoate, CAS Number: 6789-88-4, ≥98% purity were purchased from Alfa Aesar (Tewksbury, Mass.). The compounds methyl 3-methoxybenzoate (methyl m-anisate), CAS Number: 5368-81-0; 97% and methyl 3-methylbenzoate (methyl m-toluate), CAS Number: 99-36-5, 97% purity were purchased from TCI America (Portland, Oreg.). All chemicals were used without further purification. Deionized water (DI) containing 1% emulsifier (v/v), Tween 20 and Tween 80, at 1:1 ratio was used to make different VOCs (volatile organic compounds) water solutions and also used as blank control.
(§6) For tests with individual compounds, the concentration of each compound was 0.1% before placement into wells; the final concentration in the wells was 0.095% after addition to eggs or J2 suspended in water. These are reported as 0.1% herein. An exception was Trial 2, M. incognita J2 activity and viability (Table 2): the final concentration was 0.1% after placement in wells. Low concentrations were selected for assays of combined compounds to determine if the combinations would increase nematotoxicity.
(§7) Laboratory assays were conducted in 96-well polystyrene plates following general procedures described in Wen et al. (2019). Each well received approximately 35 J2 (for previously hatched J2 assays) or 35 eggs that each contained either a first-stage juvenile (J1) or a J2. The plates were covered with plastic adhesive sealing film (Excel Scientific, Inc., Victorville Calif.) and then with the plate lids. Parafilm (Bemis, Neenah, Wis.) was used to seal the plates. The nematodes were then incubated at 26° C. […] Following the counts on Day 2, the treatments were removed and the J2 rinsed twice with SDW and incubated in the second rinse. […] Two trials were conducted for each assay.

[2] = system: H. glycines second-stage juveniles; assay: as above; details: for % Active Day 1 / % Active Day 2: previously hatched J2 in aqueous solution; for viability at 0.1 %: Heterodera glycines, 72 h, read-out: % Viable Day 3 rinsed
Experimental: The isolate of H. glycines race 3, originally isolated in Maryland, was maintained on soybean (Glycine max cv. ‘Essex’). As previously described (Wen, Y., et al. Plant Disease, 103: 2191-2198 (2019)), the roots were gently rubbed in water to dislodge cysts and mature females. The egg suspensions were then poured through nested sieves (#20 over /#60; pore sizes 850 μm and 250 μm diam., respectively) into a 454 g/liter sucrose solution. After 15 min, the cysts and females and cysts that floated to the top were collected, rinsed in water, and crushed with a rubber stopper on a #60 sieve (250-μm diam. pore size) that was partially submerged in distilled water. The egg suspension was washed through nested #230 over #500 sieves (pore sizes 63 μm and 25-μm diam., respectively). The eggs were collected in distilled water, and J2 hatched as described above.
as §5, §6, §7
Statistical analyses: The data were analyzed as either a general linear model using JMP or a generalized linear model for the best distribution to fit the residual using Proc Glimmix (Sas Institute). The assumptions of the model were checked. If not met, then appropriate statistical techniques were used so that data could met the assumptions of the models. In Sas, mean comparisons were done with Sidak adjusted p-values to hold the experiment-wise error at 0.05.

M. incognita eggs = assay: Microwell assay: eggs immersed in compounds, hatch and activity of hatched J2; assay type: in vivo, Meloidogyne incognita; details: 0.1%; for % Active Day 2 / % Active Day 5 / % Active Day 7: J2 hatched from immersed eggs; for Hatch Day 2 / Hatch Day 5 / Hatch Day 7: hatched J2 per well, about 35 eggs per well
Experimental: as §1, §2, §3, §4

M. incognita = details: in vivo; cited from earlier work
X americanum adults = details: in vivo; cited from earlier work
C. elegans = details: during the first hours of incubation; cited from earlier work

Compound | % Active Day 2 (Heterodera glycines eggs) | % Active Day 5 (Heterodera glycines eggs) | % Active Day 7 (Heterodera glycines eggs) | Hatch Day 2 (Heterodera glycines eggs) | Hatch Day 5 (Heterodera glycines eggs) | Hatch Day 7 (Heterodera glycines eggs) | pest or weed control at 0.1 % (Heterodera glycines eggs) [%] | % Active Day 1 ([1]; 0.1%) | % Active Day 2 ([1]; 0.1%) | viability at 0.1 % ([1]; Meloidogyne incognita, 72 h) [%] | % Active Day 1 ([2]; 0.1%) | % Active Day 2 ([2]; 0.1%) | viability at 0.1 % [2] [%] | % Active Day 2 (M. incognita eggs) | % Active Day 5 (M. incognita eggs) | % Active Day 7 (M. incognita eggs) | Hatch Day 2 (M. incognita eggs) | Hatch Day 5 (M. incognita eggs) | Hatch Day 7 (M. incognita eggs) | other results
O=C(OCc1ccccc1)c1ccccc1 [BB, Benzyl benzoate] | 15.2 ^cd % | 17.0 ^cde % | 13.5 ^bc % | 4.1 ^cd | 4.5 ^cd | 4.6 ^cd | 64 to 80 | 83.2 ^a % | 83.1 ^a % | 79.9 | 66.4 ^bc % | 60.1 ^abc % | 41.2 | 67.0 ^ab % | 33.5 ^cd % | 24.8 ^b % | 2.6 ^cd | 4.2 ^cde | 4.1 ^de | nematode attraction (Caenorhabditis elegans): nematode attractant; % Viable Day 3 rinsed ([1]; 0.1%, after Day 2 water rinse): did not show a significant difference; reduction in % viable J2 compared with the Tween control ([2]; 0.1%, Day 3 following water rinse): 33%
CC(=O)c1c(O)cc(O)c(C(C)=O)c1O [DAPG, 2,4-diacetylphloroglucinol] |  |  |  |  |  |  |  |  |  |  |  |  |  |  |  |  |  |  |  | egg hatch (M. incognita): decreased egg hatch; toxicity to adults (X americanum adults): toxic; hatch (C. elegans): stimulated hatch
CCCCCCOC(=O)c1ccccc1 [nHB, n-Hexyl benzoate] | 19.1 ^cd % | 16.8 ^cde % | 14.6 ^bc % | 7.3 ^bcd | 7.5 ^bcd | 7.6 ^bcd |  | 84.5 ^a % | 82.4 ^c % | 66.3 | 73.2 ^ab % | 63.5 ^ab % | 46.2 | 73.2 ^ab % | 40.5 ^cd % | 16.5 ^b % | 11.6 ^ab | 13.0 ^b | 13.0 ^bc | % Viable Day 3 rinsed ([1]; in vivo): did not have a significant effect
CCCCCOC(=O)c1ccccc1 [nPeB, n-Pentyl benzoate] | 4.2 ^d % | 4.3 ^e % | 4.2 ^c % | 7.6 ^bcd | 7.7 ^bcd | 7.5 ^bcd |  | 29.9 ^bc % | 22.9 ^b % | 16.5 | 54.0 ^c % | 29.1 ^de % | 28.4 | 31.5 ^b % | 0 ^e % | 0% and 0 ^c % | 4.9 ^bcd |  | 6.6 ^cde | nonviable (killed) J2 ([1]; in vivo): killed most of the J2
CCCOC(=O)c1ccccc1 [nPrB, n-Propyl benzoate] | 2.2 ^d % | 0 ^f % | 0 ^d % | 5.8 ^cd | 5.8 ^cd | 5.6 ^cd | 64 to 80 | 0 ^f % | 0 ^d % | 0 | 17.2 ^d % | 10.8 ^fg % | 12.1 | 0 ^c % | 0 ^e % | 0 ^c % | 3.5 ^cd | 4.0 ^cde | 4.1 ^de | hatch suppression compared to the Tween control (Heterodera glycines eggs; Day 2): 60%; inactive J2 that hatched from the eggs (Heterodera glycines eggs; by Day 7): 100%; mortality at 0.1 % ([1]; Meloidogyne incognita, 72 h, read-out: nonviable (killed) J2): 100%
